# Source: patent US12064409B2, “Action of L-citrulline to prevent or treat endothelial dysfunction” (Asklepion Pharmaceuticals, LLC, priority 2021, dated 2024)
# Like-named read-outs stand apart in the source and are kept apart here.
# Columns and labels:
# [1] = Phase IB trial of intravenous L-citrulline versus placebo in children undergoing cardiopulmonary bypass (IND #66,261); format: in vivo
# From the text: FIG. 1. Duration of mechanical ventilation therapy following cardiopulmonary bypass in citrulline treated and control patients.
# FIG. 2. Duration of inotrope therapy following cardiopulmonary bypass in citrulline treated and control patients.
# FIG. 3. Maximum of mechanical ventilation or inotrope therapy (surrogate for duration of ICU stay) following cardiopulmonary bypass in citrulline treated and control patients.
# A recent study^39 carried out under IND #66,261 examined whether maintenance of plasma citrulline levels at steady state levels at or above 100 micromolar would prevent the occurrence of pulmonary complications of cardiopulmonary bypass in children undergoing congenital heart repair surgery. For pulmonary function, the endpoint was the post-operative duration of mechanical ventilation (see FIG. 1). Alternative endpoints included the duration of post-operative inotrope therapy (see FIG. 2) and the length of time in the intensive care unit (see FIG. 3).
# COVID-19 (SARS-CoV2) = assay: Example I, intravenous citrulline treatment of hospitalized Covid-19 patients; format: in vivo; details: intravenous bolus 20 mg/kg then 9 mg/kg per hour infusion up to 10 days
# Description: Subjects hospitalized and requiring oxygen for an acute hypoxemic respiratory illness due to COVID-19 (SARS-CoV2) will be treated. In addition, subjects will receive standard supportive care for acute hypoxemic respiratory illness and failure. The assessment of efficacy will include collection of plasma for analysis of citrulline and arginine levels at 2 hours, 12 hours, and the alternating morning of study days. Optionally, samples may also be analyzed for D-dimer and angiopoietin-2 levels.
# The assessment of efficacy will include collection of plasma for analysis of citrulline and arginine levels at 2 hours, 12 hours, and the alternating morning of hospitalization days. Additional efficacy measures will include clinical outcomes, including progression of acute lung injury and, lengths of hospital and ICU stay. The assessment of safety will include collection of hemodynamic measurements at least every 4 hours on a hospital unit.
# Patients will receive an initial intravenous bolus of 20 mg/kg (to a maximum of 1500 mg) L-citrulline over 10 minutes. The infusion solution will be prepared as a 5% isotonic solution (50 mg/mL) in 5% dextrose water. […]
# Participant survival will be assessed at hospital discharge. […] Hospital length of stay will be calculated as the number of days from admission to hospital discharge.
# [2] = in vivo; cited from earlier work
# [3] = in vivo, iv
# [4] = cited from earlier work
# [5] = human, in vivo; cited from earlier work
# [6] = plasma citrulline 12 h postoperatively <37 μmol/L
smiles,measurement,setting,value
"NC(=O)NCCC[C@H](N)C(=O)O [citrulline, L-citrulline]",Duration of mechanical ventilation therapy following cardiopulmonary bypass,"[1]; citrulline treated vs control patients, Wilcoxon rank-sum p=0.0089, plasma citrulline at or above 100 micromolar",treated differs from control
same,Duration of inotrope therapy following cardiopulmonary bypass,"[1]; citrulline treated vs control patients, Wilcoxon rank-sum p=0.0351",treated differs from control
same,Maximum of mechanical ventilation or inotrope therapy (surrogate for duration of ICU stay) following cardiopulmonary bypass,"[1]; citrulline treated vs control patients, Wilcoxon rank-sum p=0.0479",treated differs from control
same,Complications of cardiopulmonary bypass,"[1]; plasma citrulline maintained at or above 100 micromolar, by time on mechanical ventilation and duration of inotrope therapy",prevented the complications of bypass
same,Length of time to an intubation event from the start of study infusion,COVID-19 (SARS-CoV2),extend the length of time to an intubation event
same,"Total length of all mechanical ventilation, including non-invasive modalities",COVID-19 (SARS-CoV2),reduce the total length of all mechanical ventilation
same,half-life of citrulline in plasma,[2],about 1 hour
same,Drug-associated adverse events,[3],no drug-associated adverse events
same,Pulmonary hypertension absent (number of patients),[4]; [6],18
same,Pulmonary hypertension present (number of patients),[4]; [6],9
same,Pulmonary hypertension present (number of patients),"[4]; plasma citrulline 12 h postoperatively >37 μmol/L, P value .036",*0
same,Pulmonary hypertension absent (number of patients),[4]; plasma citrulline 12 h postoperatively >37 μmol/L,12
same,Adverse effects,[5],no observed adverse effects
